Assay results as given in article PMC6155239, “Targeting PFKFB3 radiosensitizes cancer cells and suppresses homologous recombination” (Nature Communications, 2018).

Key:
[1] = system: BJ RAS cells; test: Clonogenic survival, BJ RAS; format: cell-based; details: with and without IR (2 Gy)
Protocol: U2OS cells were transfected with indicated siRNAs and 24 h later exposed to IR (2 Gy) or left untreated and allowed to recover for 4 h. One-hundred U2OS cells were then seeded into 6-well plates and after 10 days colonies were fixed and stained with 4% methylene blue (Sigma Aldrich) in methanol. BJ TERT (500 cells), BJ RAS (200 cells), or U2OS (200 cells) were seeded into 6-well plates 24 h prior to treatment with inhibitors as indicated or vehicle for 24 h and then subjected to IR (2 Gy). The inhibitors were washed out 72 h later and colonies were fixed 4 days (BJ RAS) or 7 days (BJ TERT) later with 4% methylene blue in methanol.

[2] = system: U2OS cells; test: DNA fiber assay; format: cell-based; details: 10 μM
Protocol: 1 × 10^5 cells were seeded into 6-well plates, 24 h later cells were treated with the indicated inhibitors or nucleosides, and 24 h later DNA was labeled with 25 μM CldU (Sigma, C6891) in pre-warmed DMEM for 20 min, washed and then labeled with 250 μM IdU (Sigma I7125) in pre-warmed DMEM for 20 min, before harvesting by scraping in cold PBS. Harvested cells were diluted to 1 × 10^6 cells/mL, spreading and staining was performed as described previously described. Fluorescence images were captured using a Zeiss LSM 780 inverted confocal microscope using a 63 × 1.4 oil immersion objective, excitation wavelengths of 488 and 555 nm, and analyzed using the ImageJ software. At least 300 unidirectional forks labeled with both CldU and IdU were measured for every condition.

[3] = system: U2OS cells; test: DDR signaling, western blot / RPA32 intensity; format: cell-based
Protocol: Cells were lysed on ice using the NP-40 lysis buffer (50 mM Tris–HCl pH 8.0, 150 mM NaCl, 1% NP-40) supplemented with protease and phosphatase inhibitors (Roche). Protein lysates were quantified using the Pierce BCA Protein Assay Kit (ThermoFisher Scientific), equal amounts of protein were heated to 70 °C in NuPAGE LDS Sample Buffer (ThermoFisher Scientific) and loaded on Mini-PROTEAN® precast gels (Bio-Rad) and run at 120 V. Transfer to nitrocellulose membrane (Bio-Rad) was done using Trans-Blot Turbo Transfer System (Bio-Rad). Membranes were blocked for 1 h at RT in blocking buffer (5% BSA, 0.1% Tween-20 in PBS, or 1:1 Li-Cor Blocking Buffer/TBS + 0.05% Tween-20 (TBS-T)), incubated with primary antibodies overnight at 4 °C and then incubated 1 h at RT with secondary antibodies diluted at 1:10,000 in 1:1 Li-Cor blocking buffer/TBS-T. Bands were visualized with an Odyssey Fc Imager and analyzed with ImageJ or with Image Studio Software (Li-Cor Biosciences). Uncropped western blots are shown in Supplementary Figure 10, 11, 12, 13, 14, 15, 16.

[4] = system: U2OS cells; test: Cell cycle analysis (propidium iodide, flow cytometry); format: cell-based; details: 24 h post-IR
Protocol: For cell cycle analysis, cells were treated or transfected with siRNA as described and harvested at the indicated time points with trypsin. For studies using IR, cells were exposed to IR with 2 Gy, and harvested at the indicated time points with trypsin. The cells were washed in PBS and fixed with 70% ethanol in PBS at 4 °C for 1 h and then stored at −20 °C until staining. Ethanol was removed by centrifugation and cells were then washed in PBS before staining DNA with propidium iodide (PI) solution containing 40 μg/mL PI, 100 μg/mL RNase A, and 0.1% Triton X-100 (Sigma Aldrich). Cells were analyzed by flow cytometry on a FACS Navios (Beckman Coulter) using Kaluza software.

[5] = system: U2OS cells; test: IR-induced PFKFB3/RRM2 foci co-localization; format: cell-based; details: pre-treatment prior to IR 6 Gy
Protocol: Cells were grown on sterilized coverslips and fixed with 4% paraformaldehyde (PFA) (Santa Cruz) and 2% sucrose (Sigma Aldrich) for 15 min at room temperature. They were then permeabilized with 0.2% NP-40 (Thermo Scientific) for 10 min at room temperature followed by 30 min of blocking in blocking buffer (2 or 3% BSA, 5% glycerol, 0.1% Tween 20 (Sigma Aldrich)). Coverslips were subsequently incubated for 1, 2, or 24 h in primary antibody and 40 min in secondary antibody diluted in blocking buffer, DNA was stained with DAPI for 10 min. The coverslips were mounted with Prolonged Gold mounting medium (Invitrogen). Images were acquired with a Zeiss LSM 780 microscope using a 40× or 63× oil immersion lens and processed in ImageJ and CellProfiler.
To visualize PFKFB3, RPA32, RAD51, BRCA1, 53BP1, and RRM2 IRIF, the cells were first washed with PBS and then incubated for 5 min at room temperature with cytoskeleton (CSK) buffer containing 10 mM PIPES pH 7.0 (Sigma Aldrich), 100 mM NaCl (EMD Millipore), 300 mM sucrose (Sigma Aldrich), 3 mM MgCl2 (Sigma Aldrich), and 0.7% Triton X-100 (Sigma Aldrich). After these treatments, the cells were washed once again with PBS and then fixed in 4% PFA with 2% sucrose.

[6] = system: peripheral blood mononuclear cells (PBMCs); test: Viability of PBMCs; format: cell-based
[7] = target: T1, ABL1-nonphosphorylated (Homo sapiens, UniProt P00519); test: KINOMEscan; format: binding; details: 2000 nM; read-out: Percent Control
T1 construct: purchased DiscoverX (Eurofins) KINOMEscan / scanEDGE, inferred from the naming style
T1 sequence (P00519 whole entry): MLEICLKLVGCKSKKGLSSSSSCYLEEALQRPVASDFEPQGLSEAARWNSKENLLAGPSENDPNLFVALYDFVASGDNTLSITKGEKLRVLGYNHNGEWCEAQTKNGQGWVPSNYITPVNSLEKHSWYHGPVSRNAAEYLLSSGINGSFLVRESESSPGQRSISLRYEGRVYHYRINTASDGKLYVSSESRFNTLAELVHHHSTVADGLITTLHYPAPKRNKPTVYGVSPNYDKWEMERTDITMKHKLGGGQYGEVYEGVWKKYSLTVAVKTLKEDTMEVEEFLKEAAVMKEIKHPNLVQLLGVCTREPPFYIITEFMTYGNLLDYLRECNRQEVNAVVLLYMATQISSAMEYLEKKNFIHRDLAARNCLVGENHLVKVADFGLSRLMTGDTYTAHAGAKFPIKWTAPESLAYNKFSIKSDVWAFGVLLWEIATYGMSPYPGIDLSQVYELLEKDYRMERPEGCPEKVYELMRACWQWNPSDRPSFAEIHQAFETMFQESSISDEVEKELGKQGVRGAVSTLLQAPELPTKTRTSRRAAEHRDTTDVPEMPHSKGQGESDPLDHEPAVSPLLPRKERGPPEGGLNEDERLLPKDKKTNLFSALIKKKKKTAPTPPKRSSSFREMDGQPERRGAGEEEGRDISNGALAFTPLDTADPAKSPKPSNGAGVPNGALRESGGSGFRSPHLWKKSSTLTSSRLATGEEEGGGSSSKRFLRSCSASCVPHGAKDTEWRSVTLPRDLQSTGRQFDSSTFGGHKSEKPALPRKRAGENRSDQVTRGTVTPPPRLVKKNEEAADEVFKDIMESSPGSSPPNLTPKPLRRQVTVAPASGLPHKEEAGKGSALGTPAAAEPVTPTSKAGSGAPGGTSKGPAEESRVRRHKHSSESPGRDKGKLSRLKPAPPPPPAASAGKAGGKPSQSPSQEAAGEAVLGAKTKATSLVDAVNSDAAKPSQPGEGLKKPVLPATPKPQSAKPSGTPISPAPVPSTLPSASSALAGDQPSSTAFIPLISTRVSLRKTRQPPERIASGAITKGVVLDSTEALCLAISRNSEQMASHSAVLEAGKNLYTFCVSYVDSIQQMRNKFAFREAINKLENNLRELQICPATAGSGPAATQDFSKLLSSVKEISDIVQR

[8] = target: T2, FLT3 (Homo sapiens, UniProt P36888); test: KINOMEscan; format: binding; details: 2000 nM; read-out: Percent Control
T2 construct: purchased DiscoverX (Eurofins) KINOMEscan / scanEDGE, inferred from the naming style
T2 sequence (P36888 27-993): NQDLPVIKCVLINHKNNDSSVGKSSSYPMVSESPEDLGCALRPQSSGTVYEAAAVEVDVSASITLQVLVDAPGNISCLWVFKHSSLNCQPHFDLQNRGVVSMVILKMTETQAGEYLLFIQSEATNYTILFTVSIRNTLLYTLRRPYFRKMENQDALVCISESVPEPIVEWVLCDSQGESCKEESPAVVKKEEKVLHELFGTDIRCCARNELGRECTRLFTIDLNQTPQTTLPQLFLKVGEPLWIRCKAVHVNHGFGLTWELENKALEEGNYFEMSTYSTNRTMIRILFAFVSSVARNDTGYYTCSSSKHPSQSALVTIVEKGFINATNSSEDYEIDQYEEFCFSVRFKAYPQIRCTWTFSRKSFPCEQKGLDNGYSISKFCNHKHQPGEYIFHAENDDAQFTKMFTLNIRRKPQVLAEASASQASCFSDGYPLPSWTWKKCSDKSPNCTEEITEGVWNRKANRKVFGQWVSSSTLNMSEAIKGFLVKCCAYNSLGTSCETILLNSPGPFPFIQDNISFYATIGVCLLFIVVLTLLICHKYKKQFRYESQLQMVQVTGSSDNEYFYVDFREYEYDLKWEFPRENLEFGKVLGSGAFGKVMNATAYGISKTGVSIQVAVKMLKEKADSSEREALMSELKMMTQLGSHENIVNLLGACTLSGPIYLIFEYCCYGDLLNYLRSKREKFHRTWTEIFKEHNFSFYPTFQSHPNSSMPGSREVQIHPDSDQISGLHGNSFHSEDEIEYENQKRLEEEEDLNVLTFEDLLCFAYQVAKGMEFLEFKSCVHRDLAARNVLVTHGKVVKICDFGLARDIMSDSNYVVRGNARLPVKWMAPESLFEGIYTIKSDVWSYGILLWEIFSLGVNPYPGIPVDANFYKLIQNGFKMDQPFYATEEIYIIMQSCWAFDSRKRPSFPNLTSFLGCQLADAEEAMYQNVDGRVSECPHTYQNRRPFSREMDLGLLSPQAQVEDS

[9] = target: T3, ADCK3 (Homo sapiens, UniProt Q8NI60); test: KINOMEscan; format: binding; details: 2000 nM; read-out: Percent Control
T3 construct: purchased DiscoverX (Eurofins) KINOMEscan / scanEDGE, inferred from the naming style
T3 sequence (Q8NI60 163-647): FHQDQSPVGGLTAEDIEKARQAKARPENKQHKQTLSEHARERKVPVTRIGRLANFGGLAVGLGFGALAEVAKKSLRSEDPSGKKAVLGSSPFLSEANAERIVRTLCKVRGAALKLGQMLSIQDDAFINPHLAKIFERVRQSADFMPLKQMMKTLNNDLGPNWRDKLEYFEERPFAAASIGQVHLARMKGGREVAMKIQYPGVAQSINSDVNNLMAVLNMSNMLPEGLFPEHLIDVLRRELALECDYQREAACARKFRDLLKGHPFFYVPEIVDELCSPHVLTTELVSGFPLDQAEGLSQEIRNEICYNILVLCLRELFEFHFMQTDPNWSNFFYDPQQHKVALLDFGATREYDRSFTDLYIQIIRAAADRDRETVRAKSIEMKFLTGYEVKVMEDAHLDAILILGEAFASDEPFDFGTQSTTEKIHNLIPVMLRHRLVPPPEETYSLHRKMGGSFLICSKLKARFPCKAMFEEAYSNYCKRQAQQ

[10] = target: T4, CSNK1G2 (Homo sapiens, UniProt P78368); test: KINOMEscan; format: binding; details: 2000 nM; read-out: Percent Control
T4 construct: purchased DiscoverX (Eurofins) KINOMEscan / scanEDGE, inferred from the naming style
T4 sequence (P78368 whole entry): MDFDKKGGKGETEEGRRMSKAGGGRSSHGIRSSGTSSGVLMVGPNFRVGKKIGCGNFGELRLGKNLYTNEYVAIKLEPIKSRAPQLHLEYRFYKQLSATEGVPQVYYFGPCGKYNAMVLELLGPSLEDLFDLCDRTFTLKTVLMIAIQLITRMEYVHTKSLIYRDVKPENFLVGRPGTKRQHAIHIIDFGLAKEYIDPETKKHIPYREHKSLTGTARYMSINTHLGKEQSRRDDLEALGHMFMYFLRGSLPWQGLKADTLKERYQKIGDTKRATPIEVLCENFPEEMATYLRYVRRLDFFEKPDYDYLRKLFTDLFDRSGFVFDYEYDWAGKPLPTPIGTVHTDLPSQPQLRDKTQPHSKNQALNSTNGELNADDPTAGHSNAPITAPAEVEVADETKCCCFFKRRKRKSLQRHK

[11] = target: T5, ABL1(E255K)-phosphorylated (Homo sapiens, UniProt P00519, E255K); test: KINOMEscan; format: binding; details: 2000 nM; read-out: Percent Control
T5 construct: purchased DiscoverX (Eurofins) KINOMEscan / scanEDGE, inferred from the naming style
T5 sequence (P00519 whole entry E255K): as the sequence (P00519 whole entry) above, with E255K counted along it

[12] = target: T6, CHEK1 (Homo sapiens, UniProt O14757); test: KINOMEscan; format: binding; details: 2000 nM; read-out: Percent Control
T6 construct: purchased DiscoverX (Eurofins) KINOMEscan / scanEDGE, inferred from the naming style
T6 sequence (O14757 whole entry): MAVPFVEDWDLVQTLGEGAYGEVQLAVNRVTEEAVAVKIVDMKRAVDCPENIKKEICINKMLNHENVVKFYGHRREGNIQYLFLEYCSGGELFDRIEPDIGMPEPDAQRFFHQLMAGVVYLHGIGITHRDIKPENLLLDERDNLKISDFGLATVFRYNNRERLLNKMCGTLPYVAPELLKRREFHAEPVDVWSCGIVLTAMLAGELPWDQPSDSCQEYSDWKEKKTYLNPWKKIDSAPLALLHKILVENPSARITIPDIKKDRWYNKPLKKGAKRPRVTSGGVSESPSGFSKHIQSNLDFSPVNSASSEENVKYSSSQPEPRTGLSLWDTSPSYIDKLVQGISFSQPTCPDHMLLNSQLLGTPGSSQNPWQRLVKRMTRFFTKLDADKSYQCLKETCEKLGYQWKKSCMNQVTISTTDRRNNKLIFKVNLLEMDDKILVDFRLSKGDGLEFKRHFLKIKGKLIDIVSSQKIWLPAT

[13] = target: T7, DYRK1B (Homo sapiens, UniProt Q9Y463); test: KINOMEscan; format: binding; details: 2000 nM; read-out: Percent Control
T7 construct: purchased DiscoverX (Eurofins) KINOMEscan / scanEDGE, inferred from the naming style
T7 sequence (Q9Y463 whole entry): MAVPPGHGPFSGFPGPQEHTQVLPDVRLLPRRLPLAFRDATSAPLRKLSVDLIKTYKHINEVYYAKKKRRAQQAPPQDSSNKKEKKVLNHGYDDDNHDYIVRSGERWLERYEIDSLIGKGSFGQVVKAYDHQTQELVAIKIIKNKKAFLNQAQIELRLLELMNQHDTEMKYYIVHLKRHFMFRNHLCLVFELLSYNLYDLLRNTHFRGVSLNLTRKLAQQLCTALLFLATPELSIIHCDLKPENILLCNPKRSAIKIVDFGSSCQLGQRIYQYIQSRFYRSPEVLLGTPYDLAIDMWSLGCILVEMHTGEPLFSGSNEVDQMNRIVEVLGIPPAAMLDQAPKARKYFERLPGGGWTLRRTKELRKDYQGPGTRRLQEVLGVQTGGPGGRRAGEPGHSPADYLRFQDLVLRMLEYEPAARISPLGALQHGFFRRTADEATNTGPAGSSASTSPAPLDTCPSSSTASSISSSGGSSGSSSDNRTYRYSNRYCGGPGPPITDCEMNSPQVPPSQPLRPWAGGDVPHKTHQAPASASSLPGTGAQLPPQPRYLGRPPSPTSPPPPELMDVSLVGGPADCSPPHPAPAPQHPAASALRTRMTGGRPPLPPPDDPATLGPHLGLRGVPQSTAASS

[14] = target: T8, FGFR2 (Homo sapiens, UniProt P21802); test: KINOMEscan; format: binding; details: 2000 nM; read-out: Percent Control
T8 construct: purchased DiscoverX (Eurofins) KINOMEscan / scanEDGE, inferred from the naming style
T8 sequence (P21802 22-821): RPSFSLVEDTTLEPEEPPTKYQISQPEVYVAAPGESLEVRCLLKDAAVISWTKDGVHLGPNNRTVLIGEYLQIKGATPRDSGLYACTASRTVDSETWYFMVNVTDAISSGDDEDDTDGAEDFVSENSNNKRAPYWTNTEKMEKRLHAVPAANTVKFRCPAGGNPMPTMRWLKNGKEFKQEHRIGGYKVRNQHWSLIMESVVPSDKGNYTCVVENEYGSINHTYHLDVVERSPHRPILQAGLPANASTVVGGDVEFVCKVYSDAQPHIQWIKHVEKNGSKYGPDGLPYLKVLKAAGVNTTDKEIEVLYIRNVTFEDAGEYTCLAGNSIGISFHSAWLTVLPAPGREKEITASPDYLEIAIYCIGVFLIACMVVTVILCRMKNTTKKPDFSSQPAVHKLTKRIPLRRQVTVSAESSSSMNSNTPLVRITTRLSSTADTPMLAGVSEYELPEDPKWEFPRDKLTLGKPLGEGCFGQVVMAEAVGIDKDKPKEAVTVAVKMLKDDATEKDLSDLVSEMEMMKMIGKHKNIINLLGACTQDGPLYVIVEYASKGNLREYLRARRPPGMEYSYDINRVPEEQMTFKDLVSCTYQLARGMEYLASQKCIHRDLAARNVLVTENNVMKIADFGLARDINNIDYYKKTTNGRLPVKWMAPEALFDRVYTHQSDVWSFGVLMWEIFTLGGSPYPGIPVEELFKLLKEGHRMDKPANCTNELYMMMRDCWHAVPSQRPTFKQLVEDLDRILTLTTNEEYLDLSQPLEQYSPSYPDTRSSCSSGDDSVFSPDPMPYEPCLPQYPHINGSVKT

[15] = target: T9, EPHA2 (Homo sapiens, UniProt P29317); test: KINOMEscan; format: binding; details: 2000 nM; read-out: Percent Control
T9 construct: purchased DiscoverX (Eurofins) KINOMEscan / scanEDGE, inferred from the naming style

| Structure (SMILES) | clonogenic survival of BJ RAS (in words) [1] | incorporation of CldU and IdU / replication fork speed (in words) [2] | IR-induced phosphorylation of ATM, H2AX, or KAP-1 (in words) ([3]; 10 μM 24 h) | induction of RPA-coated ssDNA, p53, phosphorylation of ATR, ATM, Chk1, H2AX (in words) ([3]; no IR) | accumulation of cells in G2/M phase upon IR (in words) [4] | IR-induced co-localization of PFKFB3 and RRM2 (in words) [5] | effect on viability of PBMCs [6] | remaining binding at 2 µM [7] | remaining binding at 2 µM [8] | remaining binding at 2 µM [9] | remaining binding at 2 µM [10] | remaining binding at 2 µM [11] | remaining binding at 2 µM [12] | remaining binding at 2 µM [13] | remaining binding at 2 µM [14] | remaining binding at 2 µM [15] |
| --- | --- | --- | --- | --- | --- | --- | --- | --- | --- | --- | --- | --- | --- | --- | --- | --- |
| O=C(OCCO)c1ccc(NS(=O)(=O)c2cccc(-c3cc(F)ccc3O)c2)cc1O [KAN0438757, 2-Hydroxyethyl-4-{[(5′-fluoro-2′-hydroxybiphenyl-3-yl)sulfonyl]amino}-2-hydroxybenzoate] | decreased clonogenic survival | severely decreased | did not affect | did not induce | increased accumulation of cells in the G2/M phase | disrupted | not affected |  |  |  |  |  |  |  |  |  |
| O=C(O)c1ccc(NS(=O)(=O)c2cccc(-c3cc(F)ccc3O)c2)cc1O [KAN0438241, 4-{[(5′-Fluoro-2′-hydroxybiphenyl-3-yl)sulfonyl]amino}-2-hydroxybenzoic acid] |  |  |  |  |  |  |  | 100% | 94% | 100% | 97% | 100% | 89% | 86% | 88% | 100% |
